These results are taken from article PMC6899670 (The Febs Journal, 2019).

Experiment [1] concerns the target T1, BpDdl (Burkholderia pseudomallei D-alanine-D-alanine ligase) (Burkholderia pseudomallei, UniProt Q63QJ9).
T1 construct: gene ddl
Put plainly: biochemical.

The target in experiment [2] is T1, BpDdl (Burkholderia pseudomallei D-alanine-D-alanine ligase). In words: biochemical. The source holds these as a separate data set.
Experiment [3] has the same target. The note with it: substrate inhibition at high ATP; 10 mM D-Ala, pH 8, 10 mM MgCl2, 100 mM KCl, 30 °C; enzyme co-purified with AMP.

Read-outs that look alike come from different tables or passages of the source.

T1 sequence (Q63QJ9 whole entry, looked up): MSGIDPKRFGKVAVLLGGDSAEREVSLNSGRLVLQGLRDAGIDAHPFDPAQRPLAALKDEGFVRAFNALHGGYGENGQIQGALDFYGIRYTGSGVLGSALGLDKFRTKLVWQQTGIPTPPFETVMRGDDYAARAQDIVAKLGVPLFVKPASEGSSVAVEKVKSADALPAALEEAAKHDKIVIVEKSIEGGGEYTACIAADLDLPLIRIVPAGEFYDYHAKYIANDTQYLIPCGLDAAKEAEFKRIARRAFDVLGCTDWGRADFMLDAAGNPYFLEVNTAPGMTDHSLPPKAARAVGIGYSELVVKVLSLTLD

For the compound `CC(=O)NCc1ccccc1Cl` [compound identified in the fragment screen], the Ki in experiment [1] stood at 10 mM.
`N[C@@H]1CON=C1O` [DCS] gave a Ki in experiment [2] of 0.1 mM.
`Nc1ncnc2c1ncn2[C@@H]1O[C@H](COP(=O)(O)OP(=O)(O)OP(=O)(O)O)[C@@H](O)[C@H]1O` [ATP]: the “K i,ATP” value in experiment [3] worked out at 3.16 ± 0.59 mM.
